Test results as given in paper PMC8778984 (Pharmaceutics, 2021).
Entries after “also recorded” stand apart in the source; their conditions may differ. Where two headings read alike, the source gives them in different places.

Experiments:
[1] = biological target: T1, DHFR (dihydrofolate reductase), partially purified from chicken liver (Gallus gallus, UniProt P00378); experiment: Cell-free enzymatic assay for DHFR (NADPH oxidation, absorbance at 340 nm); format: biochemical; conditions: for % Inhibition relative to MTX: DHFR inhibitory potency relative to MTX
T1 construct: Fresh chicken liver (20 g) was cut into pieces, homogenized in 0.1 M MnCl2 and centrifuged; from tissue; host or cells: chicken liver
T1 sequence (P00378 1-189): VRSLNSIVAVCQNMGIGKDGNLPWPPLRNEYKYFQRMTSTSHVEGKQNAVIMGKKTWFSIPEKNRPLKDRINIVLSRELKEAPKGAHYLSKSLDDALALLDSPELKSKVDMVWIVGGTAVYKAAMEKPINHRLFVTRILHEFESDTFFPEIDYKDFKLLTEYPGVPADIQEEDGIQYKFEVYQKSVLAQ
Experimental: This was carried out by the procedure of Kaufman and Kemerer with some modifications: Fresh chicken liver (20 g) was cut into pieces, homogenized in 0.1 M MnCl2 and centrifuged. The supernatant was brought to pH 5–6 with HCl, and ZnSO4 was added gradually to obtain a final concentration of 20 mM. The pH was elevated to pH 7.5–8 by the addition of solid NaHCO3. […] The proteins that remained in the supernatant were precipitated with 4.54 M ammonium sulfate. The precipitate was then dissolved in 50 mM Tris-HCl (pH 7.5) containing 0.1 M KCl and dialyzed for two days against the same buffer, and then frozen in aliquots at −80 °C until used.
(§1) The assay was based on DHFR-dependent reduction of dihydrofolate to tetrahydrofolate. In this process, NADPH is oxidized to NADP, and the extent of the oxidation is monitored by the decrease in absorbance at 340 nm. Tubes containing 1.0 mL each of 0.05 M Tris-HCl buffer (pH 7.5) 0.5 M KCl, 0.137 mM NADPH, and 0.187 mM DHF were incubated for 1 h at 25 °C in the absence and the presence of partially purified DHFR (35 µg/mL) and increasing concentrations of MTX or its derivatives. The absorbance at 340 nm was then monitored.
Figure 1 Inhibition of dihydrofolate reductase by MTX and MTX analogues. The indicated concentrations of MTX and its derivatives were analyzed for their potencies to inhibit the reduction of dihydrofolate to tetrahydrofolate by DHFR. In this process, NADPH is oxidized to NADP and the extent of this oxidation is monitored by the decrease in absorbance at 340 nm (experimental section).

CNS-1 rat glioma cells = experiment: Growth inhibition, MTT viability assay, CNS-1 cells; format: cell-based; conditions: for inhibition compared with MTX (in words): CNS-1 (Figure 4B), at 10 µM, to a lesser extent at 1 µM; for antiproliferative potency compared with MTX (in words): MTX-sensitive cell line CNS-1, 48 h MTT; for antiproliferative potency, BSA–S–S–MTX compared with BSA–(CH2)6–MTX (in words): sensitive glioma cell line CNS-1
Experimental: (§2) In this study, we used two glioma cell lines: (i) CNS-1; rat glioma; (ii) U251; human glioma. Cells were a generous gift from Dr. Yael Mardor from the Sheba Medical Center, Israel.
(§3) Cancer cell lines were grown in monoculture in 96-well plates in RPMI (CNS-1 cells) or DMEM containing 10% fetal bovine serum, 2 mM L-glutamine, penicillin (100 units/mL), and streptomycin (0.1 mg/mL) under humidified atmosphere containing 5% CO2. […] Cell viability was measured after 48 h using a standard MTT (3-(4,5-dimethylthiazol-2-yl)-2,5-diphenyltetrazolium bromide) assay, as described before.

U251 human glioma cells = experiment: Growth inhibition, MTT viability assay, U251 cells; format: cell-based; conditions: for antiproliferative potency compared with MTX (in words): MTX-insensitive glioma cell line U251, 48 h MTT; for antiproliferative potency, BSA–S–S–MTX compared with BSA–(CH2)6–MTX (in words): insensitive glioma cell line U251
Experimental: as §2, §3

[2] = design: method as in printed; conditions: ref not given, cited from earlier work
glioma cell lines = conditions: read-out: average EC50; variety of glioma cell lines, large variation among lines; cited from earlier work
[3] = biological target: T2, DHFR (dihydrofolate reductase) (Gallus gallus, UniProt P00378); experiment: Reactivation of BSA–MTX analogues by DTT, GSH or L-cysteine, read out as DHFR inhibitory potency; format: biochemical, chicken; conditions: for Fold Reactivation by DTT: 2 mM DTT (dithiothreitol); for reactivation by glutathione and L-cysteine (in words): GSH or L-cysteine at concentrations of 100 μM or lower; for % Activity Relative to MTX: Table 2, + 2 mM DTT
T2 construct: Fresh chicken liver (20 g) was cut into pieces, homogenized in 0.1 M MnCl2 and centrifuged; from tissue; host or cells: chicken liver
T2 sequence (P00378 1-189): T1 sequence (P00378 1-189)
Experimental: as §1
A solution of BSA–GSSG–MTX (50 μM in 0.1 M HEPES buffer, pH 7.4, 130 mM NaCl) was divided into plastic tubes (1.0 mL/tube) and incubated for 2 h at 25 °C in the absence and the presence of 2 mM DTT and the indicated concentrations of either GSH or L-cysteine. Samples were then analyzed for their DHFR inhibitory potencies and the IC50 values were determined. Results are expressed as percent of maximal reactivation (obtained by preincubation with 2 mM DTT). Each point is the arithmetic mean of n = 4 tubes ± SEM.

[4] = Maleimide–thiol exchange assay (incubation with GSH, dialysis, absorbance at 372 nm); format: physicochemical
Experimental: BSA–S–MAL–(CH2)3–CONH–MTX (0.2 mM) was dissolved in 1.0 mL 0.1 M HEPES, pH 7.3, and transferred to a tube containing 7.5 mg GSH corresponding to […] which are 100 molar excess over the conjugate. The solution was incubated for 7 h at 37 °C, followed by extensive dialysis and lyophilization. Absorbance was read at 372 nm.

cancer cell lines = experiment: Antiproliferative efficacy in the cancer cell lines (unpublished results); format: cell-based
[5] = Table 1, 1 h at 25 °C, 0.137 mM NADPH, 0.187 mM DHF, read-out: IC50
[6] = Table 2, without DTT, read-out: DHFR Inhibitory Potency (IC50)

CN(Cc1cnc2nc(N)nc(N)c2n1)c1ccc(C(=O)NC(CCC(=O)NCCS)C(=O)O)cc1 (centres unmarked) [MTX–cystamine, MTX–CONH–(CH2)2–SH]
IC50 [1, 5]: 340 ± 11 nM
% Inhibition relative to MTX ([1]; Table 1): 16.2%

CN(Cc1cnc2nc(N)nc(N)c2n1)c1ccc(C(=O)NC(CCC(=O)NCCSSCCN)C(=O)O)cc1 (centres unmarked) [MTX–dicystamine, MTX–CONH–(CH2)2–S–S–(CH2)2–NH2]
IC50 [1, 5]: 110 ± 12 nM
% Inhibition relative to MTX ([1]; Table 1): 50%

CN(Cc1cnc2nc(N)nc(N)c2n1)c1ccc(C(=O)N[C@@H](CCC(=O)NCCCCCCN)C(=O)O)cc1 [MTX–hexylamine, MTX–CONH–(CH2)6–NH2]
IC50 [1, 5]: 80 ± 4 nM
% Inhibition relative to MTX ([1]; Table 1): 69%
% of the DHFR inhibitory potency of MTX ([1]; running text and scheme legend): 69%

CN(Cc1cnc2nc(N)nc(N)c2n1)c1ccc(C(=O)N[C@@H](CCC(=O)O)C(=O)O)cc1 [Methotrexate, reference compound]
viability in comparison to nontreated cells (CNS-1 rat glioma cells; CNS-1, at maximal effect, 48 h): 36%
EC50 (CNS-1 rat glioma cells; Rattus norvegicus, Glioma cell, CNS-1, 48 h, MTT, read-out: EC50 (concentration needed to obtain 50% of viable cells relative to untreated cells)): ~70 nM
Emax (CNS-1 rat glioma cells; Rattus norvegicus, Glioma cell, CNS-1, within 48 h, read-out: maximal effect): 64%
EC50 (U251 human glioma cells; Homo sapiens, U-251, U251, 48 h, MTT, read-out: EC50 (concentration needed to obtain 50% of viable cells relative to untreated cells)): ~10 µM
Emax (U251 human glioma cells; Homo sapiens, U-251, U251, at ~10 µM, within 48 h, read-out: maximum effect): 49%
pKa ([2]; α-carboxylate): ~ 2.1
pKa ([2]; γ-carboxylate): ~ 4.1
EC50 (glioma cell lines): 2400 nM

BSA–S–MAL–(CH2)3–CONH–(CH2)2–S–S–(CH2)2–NH^γCO–MTX [BSA–S–S–MTX]
Fold Reactivation by DTT [3]: 7.05 fold
reactivation by GSH (in words) ([3]; GSH at a concentration of 1 mM or higher): reactivated
reactivation by glutathione and L-cysteine (in words) [3]: do not reactivate
% Activity Relative to MTX [3]: 14.1%
inhibition compared with MTX (in words) (CNS-1 rat glioma cells): significantly more inhibitory than MTX
antiproliferative potency compared with MTX (in words) (CNS-1 rat glioma cells): less potent than MTX
antiproliferative potency, BSA–S–S–MTX compared with BSA–(CH2)6–MTX (in words) (CNS-1 rat glioma cells): slightly less potent than BSA–(CH2)6–MTX; also recorded: essentially equipotent
antiproliferative potency compared with MTX (in words) (U251 human glioma cells): significantly more potent
antiproliferative potency, BSA–S–S–MTX compared with BSA–(CH2)6–MTX (in words) (U251 human glioma cells): slightly less potent than BSA–(CH2)6–MTX; also recorded: essentially equipotent
% Activity Relative to MTX ([1]; Table 2, without DTT): 2.0%
IC50 [1, 6]: 2750 ± 200 nM

BSA–S–MAL–(CH2)3–CONH–(CH2)6–NH^γCO–MTX [BSA–(CH2)6–MTX]
inhibition compared with MTX (in words) (CNS-1 rat glioma cells): significantly more inhibitory than MTX
antiproliferative potency compared with MTX (in words) (CNS-1 rat glioma cells): less potent than MTX
antiproliferative potency, BSA–S–S–MTX compared with BSA–(CH2)6–MTX (in words) (CNS-1 rat glioma cells): essentially equipotent
antiproliferative potency compared with MTX (in words) (U251 human glioma cells): significantly more potent
antiproliferative potency, BSA–S–S–MTX compared with BSA–(CH2)6–MTX (in words) (U251 human glioma cells): essentially equipotent
% Activity Relative to MTX ([1]; Table 2, without DTT): 7.0%
IC50 [1, 6]: 790 ± 30 nM
maleimide–thiol exchange (in words) ([4]; 100-fold molar excess of GSH, 7 h, pH 7.3, 37 °C, listed as BSA–S–MAL–(CH2)3–CONH–MTX): did not undergo significant maleimide–thiol exchange; also recorded: such exchange does not occur
Absorbance at 372 nm per mg Protein ([4]; Control (no GSH)): 0.479 ± 0.03
Absorbance at 372 nm per mg Protein ([4]; GSH, 100 molar excess, 7 h, 37 °C, pH 7.3, then dialysis): 0.487 ± 0.03
cleavage of the spacer peptide bond (in words) ([4]; neutral pH): not cleaved

BSA–S–MAL–(CH2)3–CO–NH–GSSG–NH^γCO–MTX [BSA–GSSG–MTX]
Fold Reactivation by DTT [3]: 5.16 fold
reactivation by glutathione and L-cysteine (in words) [3]: do not reactivate
% Activity Relative to MTX [3]: 16.2%
reactivation of DHFR inhibitory potency by GSH and cysteine (in words) ([3]; cell-free state): highly effective in reactivating
antiproliferative efficacy (in words) (cancer cell lines): low antiproliferative efficacy
% Activity Relative to MTX ([1]; Table 2, without DTT): 3.14%
IC50 [1, 6]: 1750 ± 120 nM
